Results: ChEMBL document CHEMBL1143461, “Trifluoroethylamines as amide isosteres in inhibitors of cathepsin K” (Bioorg Med Chem Lett, 2005)

What was measured:
[1] = target: T1, Cathepsin K (Homo sapiens) (UniProt P43235); assay: pKa value determined against cathepsin K from humanized rabbit enzyme; details: Oryctolagus cuniculus
T1 sequence (whole entry): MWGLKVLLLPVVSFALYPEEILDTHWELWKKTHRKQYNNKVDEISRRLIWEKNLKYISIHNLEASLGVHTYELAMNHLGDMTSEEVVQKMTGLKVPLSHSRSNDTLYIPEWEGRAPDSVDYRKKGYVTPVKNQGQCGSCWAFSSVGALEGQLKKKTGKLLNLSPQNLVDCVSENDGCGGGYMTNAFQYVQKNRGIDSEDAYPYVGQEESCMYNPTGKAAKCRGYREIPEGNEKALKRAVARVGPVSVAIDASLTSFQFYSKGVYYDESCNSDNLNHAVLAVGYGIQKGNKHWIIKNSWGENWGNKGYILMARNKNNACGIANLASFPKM

[2] = target: T2, Cathepsin K (Homo sapiens, UniProt P43235); assay: Inhibitory activity against cathepsin K using humanized rabbit enzyme; set-up: species or system Oryctolagus cuniculus
[3] = target: Cathepsin S (Homo sapiens, UniProt P25774); assay: Inhibitory activity against cathepsin S from human
[4] = target: Procathepsin L (Homo sapiens, UniProt P07711); assay: Inhibitory activity against cathepsin L from human
[5] = target: Cathepsin B (Homo sapiens, UniProt P07858); assay: Inhibitory activity against cathepsin B from human
[6] = target: T2, Cathepsin K; assay: Inhibitory activity against cathepsin K (10 pM) using humanized rabbit enzyme; set-up: species or system Oryctolagus cuniculus
[7] = target: T2, Cathepsin K; assay: Inhibitory activity against cathepsin K from humanized rabbit enzyme; set-up: species or system Oryctolagus cuniculus

Chain of Procathepsin L (P07711 whole entry): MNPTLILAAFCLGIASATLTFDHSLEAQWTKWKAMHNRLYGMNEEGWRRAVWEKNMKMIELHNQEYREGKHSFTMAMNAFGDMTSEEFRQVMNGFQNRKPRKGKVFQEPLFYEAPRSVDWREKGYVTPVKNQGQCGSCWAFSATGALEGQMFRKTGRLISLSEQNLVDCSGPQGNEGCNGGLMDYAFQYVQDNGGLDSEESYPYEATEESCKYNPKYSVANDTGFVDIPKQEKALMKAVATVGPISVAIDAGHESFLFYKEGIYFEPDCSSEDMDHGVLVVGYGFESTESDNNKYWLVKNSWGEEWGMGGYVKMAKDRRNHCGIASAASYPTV
Chain of Cathepsin S (P25774 whole entry): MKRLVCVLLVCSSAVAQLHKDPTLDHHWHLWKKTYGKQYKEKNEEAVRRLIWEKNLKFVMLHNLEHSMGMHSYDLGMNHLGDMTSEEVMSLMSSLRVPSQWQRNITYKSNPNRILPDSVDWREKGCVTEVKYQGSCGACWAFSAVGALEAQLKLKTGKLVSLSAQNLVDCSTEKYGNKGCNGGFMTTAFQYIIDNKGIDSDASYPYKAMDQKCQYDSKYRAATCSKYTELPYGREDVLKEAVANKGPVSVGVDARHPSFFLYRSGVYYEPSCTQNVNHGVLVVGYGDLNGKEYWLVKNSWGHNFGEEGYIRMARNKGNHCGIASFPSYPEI

pKa [1]	IC50 [2] [nM]	IC50 [3] [nM]	IC50 [4] [nM]	IC50 [5] [nM]	IC50 [6] [nM]	IC50 [7] [nM]	Structure (SMILES)
1.8	2.4	–	–	–	–	–	CC(C)C[C@H](NC(c1ccc(Br)cc1)C(F)(F)C(F)(F)F)C(=O)NCC#N (stereo partly drawn)
4.6	2.5	–	–	–	–	–	CC(C)C[C@H](NC(c1ccc(Br)cc1)c1ccc(S(C)(=O)=O)cc1)C(=O)NCC#N (stereo partly drawn)
–	5	> 10000	> 10000	> 10000	–	–	N#CCNC(=O)C1(NC(c2ccc(-c3ccc(N4CCNCC4)cc3)cc2)C(F)(F)F)CCCCC1 (stereo not drawn)
6.7	988	–	–	–	–	–	CC(C)C[C@H](NC(C)c1ccc(Br)cc1)C(=O)NCC#N (stereo partly drawn)
–	0.4	> 10000	2270	614	–	–	N#CCNC(=O)C1(NC(=O)c2ccc(-c3ccc(N4CCNCC4)cc3)cc2)CCCCC1
–	–	451	47	1110	≤ 0.005	–	CC(C)C[C@H](N[C@@H](c1ccc(-c2ccc(N3CCNCC3)cc2)cc1)C(F)(F)F)C(=O)NCC#N
6.7	802	–	–	–	–	–	CC(C)C[C@H](NCc1ccc(Br)cc1)C(=O)NCC#N
0.7	30	–	–	–	–	–	CC(C)C[C@H](NC(C#N)c1ccc(Br)cc1)C(=O)NCC#N (stereo partly drawn)
1.3	1.3	121	34	3350	–	0.9	CC(C)C[C@H](NC(c1ccc(Br)cc1)C(F)(F)F)C(=O)NCC#N (stereo partly drawn)
–	0.6	> 10000	3900	1050	–	–	CN1CCN(c2nc(-c3ccc(C(=O)NC4(C(=O)NCC#N)CCCCC4)cc3)cs2)CC1
–	4.6	902	68	> 10000	–	–	CC(C)CC(NC(c1ccc(-c2ccc(N3CCNCC3)cc2)cc1)C(F)(F)F)C(=O)NCC#N (stereo not drawn)
–	11	–	–	–	–	–	CC(C)C[C@@H](C(=O)NCC#N)c1cccc(-c2ccc(N3CCNCC3)cc2)c1
–	1	–	–	–	–	–	CC(C)C[C@H](Nc1cscc1-c1ccc(N2CCNCC2)cc1)C(=O)NCC#N
